Molecules are shown by their SMILES. Toxic doses and inconclusive results are not listed.

Our source for the T/C values is PubChem BioAssay AID192 (DTP/NCI, 2004).

For the experiment, the system named is BDF1 mice, B16 melanoma ip, median survival T/C. Briefly: NCI In Vivo Anticancer Drug Screen. Data for tumor model B16 Melanoma (intraperitoneal) in B6D2F1 (BDF1) mice. Conditions: endpoint: median survival time, higher = longer survival. The gist of the method: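 Survival or tumor size is measured after treatment of tumor-bearing mice and normalised to the vehicle-treated control group.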

[1] abbreviates: dose: 6.25 mg/kg/injection, schedule: Q01DX009 (ip), vehicle: saline with Tween-80.
Setting [2] is: dose: 12.5 mg/kg/injection, schedule: Q01DX009 (ip), vehicle: saline with Tween-80.
Setting [3] is: dose: 25.0 mg/kg/injection, schedule: Q01DX009 (ip), vehicle: saline with Tween-80.
Setting [4] is: dose: 50.0 mg/kg/injection, schedule: Q01DX009 (ip), vehicle: saline with Tween-80.
Setting [5] is: dose: 100.0 mg/kg/injection, schedule: Q01DX009 (ip), vehicle: saline with Tween-80.
The mark [6] stands for this setting: dose: 100.0 mg/kg/injection, schedule: Q01DX009 (ip), vehicle: Klucel (hydroxypropylcellulose) (HPC).
Where [7] appears, read: dose: 200.0 mg/kg/injection, schedule: Q01DX009 (ip), vehicle: Klucel (hydroxypropylcellulose) (HPC).

Take `C[n+]1ccc(Nc2ccc(NC(=O)c3ccc(Nc4cc[n+](C)c5ccc([N+](=O)[O-])cc45)cc3)cc2)cc1`: the T/C is 107 % of control (dose: 4.0 mg/kg/injection, schedule: Q01DX009 (ip), vehicle: saline); 102 % of control (dose: 8.0 mg/kg/injection, schedule: Q01DX009 (ip), vehicle: saline); 107 % of control (dose: 16.0 mg/kg/injection, schedule: Q01DX009 (ip), vehicle: saline); 103 % of control (dose: 32.0 mg/kg/injection, schedule: Q01DX009 (ip), vehicle: saline).
In the case of `OC(COC(c1ccccc1)(c1ccccc1)c1ccccc1)C(O)CC1SCCS1` (stereo not drawn), the T/C is 107 % of control (dose: 3.13 mg/kg/injection, schedule: Q01DX009 (ip), vehicle: saline with Tween-80); 100 % of control under setting [1]; 103 % of control under setting [2]; 104 % of control under setting [3].
Turning to `CCCCNC(C)(C)C1(c2ccc(Cl)cc2)SSC(c2ccc(Cl)cc2)(C(C)(C)NCCCC)SS1` (stereo not drawn), the T/C (dose: 10.0 mg/kg/injection, schedule: Q01DX009 (ip), vehicle: Klucel (hydroxypropylcellulose) (HPC)) is 94 % of control; the T/C (dose: 20.0 mg/kg/injection, schedule: Q01DX009 (ip), vehicle: Klucel (hydroxypropylcellulose) (HPC)) is 89 % of control; the T/C (dose: 40.0 mg/kg/injection, schedule: Q01DX009 (ip), vehicle: Klucel (hydroxypropylcellulose) (HPC)) was 86 % of control.
For the molecule `O=C1c2ccccc2C(=O)C(Cl)C1Cl` (stereo not drawn), the T/C runs as follows: (dose: 0.19 mg/kg/injection, schedule: Q01DX009 (ip), vehicle: saline with Tween-80) 94 % of control; (dose: 0.39 mg/kg/injection, schedule: Q01DX009 (ip), vehicle: saline with Tween-80) 94 % of control; (dose: 5.0 mg/kg/injection, schedule: Q01DX009 (ip), vehicle: saline) 86 % of control.
For the molecule `COCc1ccc(COC)cc1`, the T/C (dose: 100.0 mg/kg/injection, schedule: Q04DX003 (ip), vehicle: saline) is 102 % of control; the T/C (dose: 200.0 mg/kg/injection, schedule: Q04DX003 (ip), vehicle: saline) is 102 % of control; the T/C (dose: 400.0 mg/kg/injection, schedule: Q04DX003 (ip), vehicle: saline) is 100 % of control.
As for `COc1ccc(OC)c(C2N(Cc3ccc(N(C)C)cc3)CCCN2Cc2ccc(N(C)C)cc2)c1`, the T/C is, setting by setting: under setting [3], 104 % of control; under setting [4], 97 % of control; under setting [5], 100 % of control.
`O=COCCc1ccccc1`: the T/C was 113 % of control under setting [6]; 103 % of control under setting [7]; 96 % of control (dose: 400.0 mg/kg/injection, schedule: Q01DX009 (ip), vehicle: Klucel (hydroxypropylcellulose) (HPC)).
With `Nc1nc2nc[nH]c2c(=O)[nH]1`, the T/C (dose: 25.0 mg/kg/injection, schedule: Q01DX009 (ip), vehicle: suspension in saline) was 95 % of control; the T/C (dose: 50.0 mg/kg/injection, schedule: Q01DX009 (ip), vehicle: suspension in saline) is 97 % of control; the T/C (dose: 100.0 mg/kg/injection, schedule: Q01DX009 (ip), vehicle: suspension in saline) is 88 % of control; the T/C (dose: 200.0 mg/kg/injection, schedule: Q01DX009 (ip), vehicle: suspension in saline) is 86 % of control.
For the molecule `CN1CCN=C(c2ccccc2)c2cc(Cl)ccc21`, the T/C runs as follows: (dose: 6.25 mg/kg/injection, schedule: Q01DX009 (ip), vehicle: saline) 117 % of control; (dose: 12.5 mg/kg/injection, schedule: Q01DX009 (ip), vehicle: saline) 117 % of control; (dose: 25.0 mg/kg/injection, schedule: Q01DX009 (ip), vehicle: saline) 115 % of control; (dose: 50.0 mg/kg/injection, schedule: Q01DX009 (ip), vehicle: saline) 106 % of control; (dose: 100.0 mg/kg/injection, schedule: Q01DX009 (ip), vehicle: saline) 100 % of control.
On to `Cc1ccc(NC(=O)Nc2ccc(Cl)c(Cl)c2)c(C)c1`, for which the T/C reads like this: (dose: 25.0 mg/kg/injection, schedule: Q01DX009 (ip), vehicle: Klucel (hydroxypropylcellulose) (HPC)) 109 % of control; (dose: 50.0 mg/kg/injection, schedule: Q01DX009 (ip), vehicle: Klucel (hydroxypropylcellulose) (HPC)) 103 % of control; under setting [6], 92 % of control.
`O=C(O)CNC(=O)c1ccc([N+](=O)[O-])cc1`: the T/C under setting [5] is 89 % of control.
As for `O=C(CCCCl)CC(O)(C(F)(F)Cl)C(F)(F)Cl`, the T/C under setting [3] is 114 % of control; the T/C (dose: 25.0 mg/kg/injection, schedule: Q04DX003 (ip), vehicle: saline with Tween-80) was 97 % of control; the T/C under setting [4] was 114 % of control; the T/C (dose: 50.0 mg/kg/injection, schedule: Q04DX003 (ip), vehicle: saline with Tween-80) was 102 % of control; the T/C under setting [5] is 117 % of control; the T/C (dose: 100.0 mg/kg/injection, schedule: Q04DX003 (ip), vehicle: saline with Tween-80) is 105 % of control.
As to `Cc1ccc(C(=N)c2ccccc2Cc2cccc3ccccc23)c(C)c1`, the T/C under setting [4] was 88 % of control.
Turning to `Cc1c2cc[n+](C)cc2c(C)c2c1[nH]c1ccc(O)cc12`, the T/C runs as follows: (dose: 0.06 mg/kg/injection, schedule: Q01DX009 (ip), vehicle: water) 111 % of control; (dose: 0.25 mg/kg/injection, schedule: Q01DX009 (ip), vehicle: water) 158 % of control.
As to `O=C(O)c1cc(-c2ccc(Cl)cc2)nc2c(Cl)cccc12`, the T/C under setting [6] is 100 % of control.
`CN(C)N=Nc1cn(C)c(=O)n(C)c1=O`: the T/C is 100 % of control (dose: 12.5 mg/kg/injection, schedule: Q04DX003 (ip), vehicle: Klucel (hydroxypropylcellulose) (HPC)); 118 % of control (dose: 25.0 mg/kg/injection, schedule: Q04DX003 (ip), vehicle: Klucel (hydroxypropylcellulose) (HPC)); 103 % of control (dose: 50.0 mg/kg/injection, schedule: Q04DX003 (ip), vehicle: Klucel (hydroxypropylcellulose) (HPC)).
As to `O=C1OC(=O)C2C1C1C3C=CC3C1C21C=C1` (stereo not drawn), the T/C reads like this: under setting [6], 87 % of control; under setting [7], 87 % of control.
With `Cc1ccc(NC(=O)c2cccc(C(=O)Nc3ccc(C)c(C)c3)c2)cc1C`, the T/C is, setting by setting: (dose: 100.0 mg/kg/injection, schedule: Q04DX003 (ip), vehicle: Klucel (hydroxypropylcellulose) (HPC)) 97 % of control; (dose: 200.0 mg/kg/injection, schedule: Q04DX003 (ip), vehicle: Klucel (hydroxypropylcellulose) (HPC)) 90 % of control; (dose: 400.0 mg/kg/injection, schedule: Q04DX003 (ip), vehicle: Klucel (hydroxypropylcellulose) (HPC)) 93 % of control.
On to `Cc1ccc2nc(-c3ccc(N=Cc4ccccc4O)cc3)sc2c1`, for which the T/C runs as follows: (dose: 25.0 mg/kg/injection, schedule: Q01DX009 (ip), vehicle: olive oil, sesame oil, peanut oil) 87 % of control; (dose: 50.0 mg/kg/injection, schedule: Q01DX009 (ip), vehicle: olive oil, sesame oil, peanut oil) 86 % of control.
`CNC(=O)OCC(Cl)(Cl)Cl`: the T/C reads like this: (dose: 75.0 mg/kg/injection, schedule: Q01DX009 (ip), vehicle: Klucel (hydroxypropylcellulose) (HPC)) 102 % of control; (dose: 150.0 mg/kg/injection, schedule: Q01DX009 (ip), vehicle: Klucel (hydroxypropylcellulose) (HPC)) 114 % of control; (dose: 300.0 mg/kg/injection, schedule: Q01DX009 (ip), vehicle: Klucel (hydroxypropylcellulose) (HPC)) 102 % of control.
Consider `Oc1ccccc1N=Cc1ccc(C=Nc2ccccc2O)cc1`, for which the T/C was 88 % of control (dose: 133.0 mg/kg/injection, schedule: Q01DX009 (ip), vehicle: gum acacia) and 99 % of control (dose: 200.0 mg/kg/injection, schedule: Q01DX009 (ip), vehicle: gum acacia).
Take `O=C(Nc1ccc(Cl)cc1)c1cccnc1`: the T/C by setting is: under setting [4], 101 % of control; under setting [5], 106 % of control; (dose: 200.0 mg/kg/injection, schedule: Q01DX009 (ip), vehicle: saline with Tween-80) 94 % of control.
With `O=S(=O)(CCBr)CCBr`, the T/C under setting [3] was 93 % of control, the T/C under setting [4] is 93 % of control and the T/C under setting [5] is 98 % of control.
Turning to `COc1cccc2c1C(=N)c1c(O)c3c(c(O)c1C2=O)C[C@@](O)(C(=O)CO)C[C@@H]3OC1CC(N)C(O)C(C)O1` (stereo partly drawn), the T/C by setting is: (dose: 25.0 mg/kg/injection, schedule: Q01DX001 (ip), vehicle: water) 230 % of control; (dose: 50.0 mg/kg/injection, schedule: Q01DX001 (ip), vehicle: water) 292 % of control; (dose: 100.0 mg/kg/injection, schedule: Q01DX001 (ip), vehicle: water) 307 % of control.
For the molecule `O=C(Nc1ccc([N+](=O)[O-])cc1)Nc1ccc([N+](=O)[O-])c(C(F)(F)F)c1`, the T/C runs as follows: under setting [1], 100 % of control; under setting [2], 100 % of control; under setting [3], 90 % of control.
